US4529720A, “Antibiotic from Streptomyces clavulicerus” (Beecham Group, p.l.c., priority 1974, dated 1985)
Where a name gives a salt, the structure may show the parent alone.

Experiments:
Staphylococcus aureus = test: Antibacterial synergism, microtitre MIC (Example 42); type: cell-based; conditions: Table 6
[1] = tested on: Staphylococcus aureus (Russell); test: as above; type: cell-based
[2] = tested on: Klebsiella aerogenes E 70; test: as above; type: cell-based; conditions: Table 8; method of Example 42
Klebsiella aerogenes 62 = test: as above; type: cell-based; conditions: Table 8; method of Example 42
Klebsiella aerogenes A [3] = test: as above; type: cell-based; conditions: Table 8; method of Example 42
[4] = Hydrolysis of methyl ester in pH 7 phosphate buffer; type: physicochemical; conditions: 1 mg/ml, 37° C., 0.05M phosphate buffer pH 7, followed over 2 hours
Method: The reaction was followed by paper chromatography (bioautographic system). Using the butanol/ethanol/water system to follow the reaction over a period of 2 hours the zone of the methyl ester at Rf 0.79 decreased in size as the zone of clavulanic acid at Rf 0.12 increased.

bacteria = test: Tests for antibacterial activity in broth (Example 32); type: cell-based; conditions: against bacteria resistant to these antibiotics
Klebsiella aerogenes A [5] = test: Growth inhibition, alone and combined (description); type: cell-based; conditions: 5 μg/ml of clavulanic acid also present
Stability in human blood = type: in vitro ADME

Q: For O=C(O)[C@H]1/C(=C/CO)O[C@@H]2CC(=O)N21 [clavulanic acid sodium salt, 3-(β-hydroxyethylidine)-7-oxo-4-oxa-1-azabicyclo[3,2,0]heptane-2-carboxylic acid sodium salt], which “Minimum Inhibitory Concentrations” value (Staphylococcus aureus; agent alone) is on record?
A: 62 µg/mL

Q: And the “Minimum Inhibitory Concentrations” value ([1]; agent alone, Table 6)?
A: 15 µg/mL

Q: What does the source list for CC1(C)S[C@@H]2[C@H](NC(=O)[C@H](N)c3ccccc3)C(=O)N2[C@H]1C(=O)O [Ampicillin, ampicillin]?
A: M.I.C., Ampicillin + 5 μg/ml of Benzyl Ester of clavulanic acid [2]: 3.9; M.I.C., Ampicillin + 5 μg/ml of Methyl Ester of clavulanic acid [2]: 3.9; M.I.C., Ampicillin + 5 μg/ml of Benzyl Ester of clavulanic acid (Klebsiella aerogenes 62): 3.9; M.I.C., Ampicillin + 5 μg/ml of Methyl Ester of clavulanic acid (Klebsiella aerogenes 62): 3.9; M.I.C., Ampicillin + 5 μg/ml of Benzyl Ester of clavulanic acid (Klebsiella aerogenes A [3]): 1.9; M.I.C., Ampicillin + 5 μg/ml of Methyl Ester of clavulanic acid (Klebsiella aerogenes A [3]): 1.9

Q: Which results are given for COC(=O)[C@H]1/C(=C/CO)O[C@@H]2CC(=O)N21 [clavulanic acid methyl ester]?
A: hydrolysis of the ester to clavulanic acid [4]: Slow conversion of the ester to clavulanic acid; hydrolysis of the ester to clavulanic acid ([4]; listed as methyl ester): slowly hydrolyse to clavulanic acid; antibacterial synergism in combination with ampicillin or cephaloridine (bacteria): marked antibacterial synergism

Q: For CC1(C)S[C@@H]2[C@H](NC(=O)Cc3ccccc3)C(=O)N2[C@H]1C(=O)O [Benzylpenicillin, benzylpenicillin], which “concentration of penicillin inhibiting growth when clavulanic acid is also present” value (Klebsiella aerogenes A [5]) is on record?
A: less than 12.5 μg/ml

Q: Which “Minimum Inhibitory Concentrations, Cephaloridine in presence of 5 μg/ml clavulanic acid sodium salt” value (Staphylococcus aureus; in presence of 5 μg/ml clavulanic acid sodium salt) does the source give for O=C(Cc1cccs1)N[C@@H]1C(=O)N2C(C(=O)[O-])=C(C[n+]3ccccc3)CS[C@H]12 [Cephaloridine, cephaloridine] here?
A: 3.7 µg/mL

Q: What about the “Minimum Inhibitory Concentration of cephaloridine when synergist added at 1 μg/ml” value ([1]; clavulanic acid sodium salt at 1 μg/ml, compared with <0.03 μg/ml at 5 μg/ml, footnote of Table 6) of the same molecule?
A: Same value

Q: With O=C(O)[C@H]1/C(=C/CO)O[C@@H]2CC(=O)N21 [clavulanic acid, Z-(2R,5R)-3-(β-hydroxyethylidene)-7-oxo-4-oxa-1-azabicyclo[3,2,0]heptane-2-carboxylic acid] as the molecule, how does the “stability in human blood” value (Stability in human blood) read?
A: high stability in human blood
